The subject of one assay is PC-12 cell. In words: Neurite extension / differentiation of PC-12 cell (differentiated cell ratio). It counts as cell-based. The settings on record: Example 6, non-addition 9.85. An excerpt: Regarding three fractions purified in Example 4, i.e. the fraction 1 (containing N-acylsphinganine), the fraction 2 (containing the hopanoids), and the fraction 3 (containing sphinganine and the amino lipids), the absence or presence of an action of extending and differentiating the neurite as a neurotrophic factor-like action was confirmed using PC-12 cell as a neural model cell.
Note that, in the same manner as in Example 4, 10 g of the alkali-stable lipid was loaded into a silica gel column equilibrated with chloroform. The column was washed with a solvent prepared by mixing chloroform and acetic acid at a volume ratio of 100:1, and eluted with a solvent having a ratio of chloroform to methanol of 2:1, whereby a fraction containing all of the constituent lipids of the fraction 1, fraction 2, and fraction 3 was prepared. The fraction was used as an alkali-stable lipid fraction not containing a fatty acid. Then, the presence or the absence of the action of extending and differentiating the neurite was confirmed similarly.
PC-12 cell (RCB0009) purchased from RIKEN BIORESOURCE CENTER was used. […]
After that, the resultant was cultured at 37° C. and under 5% CO2 for 48 hours. […] The total number of cells and the number of the differentiated cells in the viewing area were counted. […] Then, the average of 10 photographs in which the numbers were counted was calculated. […]

Assay [1] has as its system memory disorder model rats with defect in the cholinergic neuron (ibotenic acid). In words: Morris water maze test (acquisition and probe trials) in memory disorder model rats. It counts as in vivo, rat.
For assay [2], the system named is intracerebral monoamines: norepinephrine (NE), 5-hydroxyindole acetic acid (5-HIAA). Kind of assay: Monoamine content in cerebral cortex and hippocampus of memory disorder model rats (HPLC-ECD). It counts as in vivo, rat. As to conditions: 1 mg/kg/day oral, day 14. Here is the method: Then, the increase and decrease in the concentrations of those intracerebral substances in rats of each group in Example 2 were measured.
That is, the brains of the memory disorder model rats prepared in Example 2 were extirpated and the contents of the monoamines in the cerebral cortex and hippocampus were measured.
On day 14 after administration, 5 rats each in 5 groups of the ibotenic acid-untreated group, non-administration control group, low dose ASL group, high dose ASL group, and positive control group in Example 2 were decapitated with a decapitation machine and the brains were taken out. The brains were put in an ice-cold physiological saline (Otsuka Pharmaceutical Co., Ltd.). Next, the brains were taken out and the cerebral cortex and hippocampus were then taken from the divided brains and the contents of the monoamines and a metabolite thereof were measured. The measurement method is shown in (a) to (c) below.
0.2 N […] solution was added to a brain sample in a container, and thereafter, an internal standard solution was added thereto, followed by homogenizing with a homogenizer. After being ice-cooled for 60 minutes or more, the resultant was centrifuged with a refrigerated centrifuge (about 4° C., 13,800 rpm, 5 minutes), and the supernatant was used as a measurement sample.
Mobile phase: a mixture containing 0.1 mol/Lacetic acid-citric acid buffer (pH 3.5), methanol, 100 mg/ml sodium 1-octane sulfonate solution, and 5 mg/ml EDTA·2·Na solution at a ratio of 830:170:1.85:1

“Also recorded” adds a separate entry of the source.

`CCCCCCCCCCCCCCC[C@@H](O)[C@H](CO)NC(=O)C(O)CCCCCCCCCCCCCC` (stereo partly shown) [N-2′-hydroxypalmitoyl-sphinganine]: the “Differentiated cell ratio (%) of PC-12 cell 48 hours after addition” value in the assay with PC-12 cell (addition concentration 5 μg/ml) is on record as 19.49%; in the assay with PC-12 cell (addition concentration 25 μg/ml), 17.44%.

For the compound `Cl.Nc1c2c(nc3ccccc13)CCCC2` [positive control, 9-amino-1,2,3,4-tetrahydroacridine hydrochloride], the “escape latency in acquisition trials vs non-administration control group” value in assay [1] (1 mg per 1 kg rat weight per day, oral, trials day 10 to 13) is “tended to be short”. The “escape latency in the seventh trial vs non-administration control group (Steel's test, p<0.05)” value in assay [1] (1 mg/kg/day oral) is “no significant difference”. Also, in assay [1] (1 mg/kg/day oral, day 14), the “retention time in the fourth quadrant in probe trial” value is given as “did not tend to be long”. In addition, the “number of crossings of platform location in probe trial vs non-administration control group” value in assay [1] (1 mg/kg/day oral, day 14, p<0.05 Steel's test) is on record as “significant increase”. Also, the “5-HIAA content in hippocampus” value in assay [2] is given as “increasing tendencies”. Besides, in assay [2] (hydrochloride), the “5-HIAA content in cerebral cortex” value is listed as “increasing tendencies; also recorded: recovered to the level close to those of the ibotenic acid-untreated group”, the “NE content in cerebral cortex” value is on record as “increasing tendencies; also recorded: recovered to the level close to those of the ibotenic acid-untreated group” and the “NE content in hippocampus” value was “increasing tendencies; also recorded: recovered to the level close to that of the ibotenic acid-untreated group”.

The values are drawn from patent US20100028465A1, “COMPOSITION FOR AMELIORATING CEREBRAL FUNCTION” (priority 2007, published 2010).
